Experimental data as given in ChEMBL document CHEMBL1201862, “PubChem BioAssay data set” (2004).
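Tested at 5 concentrations; 48 h exposure; 96-well plates; endpoints linearly interpolated, else capped at highest concentration. The concentration for 50% growth inhibition is given as GI50.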 The source made the active and inactive calls. Cut-off read from the data, not from the text of the source: active = GI50 up to about 1.1 µM and inactive = higher.

Columns and labels:
Assay in all cases: NCI-60 cell line screen, 48 h
CCRF-CEM = system: CCRF-CEM
TK-10 = system: TK-10
NCI/ADR-RES = system: NCI/ADR-RES
BT-549 = system: BT-549
T47D = system: T47D
U-251 = system: U-251
OVCAR-4 = system: OVCAR-4
SNB-19 = system: SNB-19
HOP-92 = system: HOP-92
HCT-15 = system: HCT-15
K562 = system: K562
M14 = system: M14
A498 = system: A498
Malme-3M = system: Malme-3M
A549 = system: A549
MDA-MB-435 = system: MDA-MB-435
Hs-578T = system: Hs-578T
NCI-H522 = system: NCI-H522
RXF 393 = system: RXF 393
OVCAR-5 = system: OVCAR-5

Compound	GI50 (CCRF-CEM)	GI50 (TK-10)	GI50 (NCI/ADR-RES)	GI50 (BT-549)	GI50 (T47D)	GI50 (U-251)	GI50 (OVCAR-4)	GI50 (SNB-19)	GI50 (HOP-92)	GI50 (HCT-15) [µM]	GI50 (K562)	GI50 (M14)	GI50 (A498)	GI50 (Malme-3M)	GI50 (A549)	GI50 (MDA-MB-435)	GI50 (Hs-578T)	GI50 (NCI-H522)	GI50 (RXF 393)	GI50 (OVCAR-5)
CN1CCc2ccccc2C1Cc1ccccc1NC(=O)c1sc2ccccc2c1Cl (configuration not stated)	50.9 µM (inactive)	> 100 µM (inactive)	> 100 µM (inactive)	> 100 µM (inactive)	> 100 µM (inactive)	> 100 µM (inactive)	> 100 µM (inactive)	> 100 µM (inactive)	> 100 µM (inactive)	> 100	> 100 µM (inactive)	> 100 µM (inactive)	> 100 µM (inactive)	> 100 µM (inactive)	> 100 µM (inactive)	> 100 µM (inactive)	> 100 µM (inactive)	> 100 µM (inactive)	> 100 µM (inactive)	–
CN(C)Cc1c[nH]c2ncnc(O)c12	19.2 µM (inactive)	37.7 µM (inactive)	62.7 µM (inactive)	> 100 µM (inactive)	33.1 µM (inactive)	51.6 µM (inactive)	32.8 µM (inactive)	70.1 µM (inactive)	38.9 µM (inactive)	35.5	20.7 µM (inactive)	41.2 µM (inactive)	> 100 µM (inactive)	77.1 µM (inactive)	86.5 µM (inactive)	31.8 µM (inactive)	> 100 µM (inactive)	> 100 µM (inactive)	18.6 µM (inactive)	> 100 µM (inactive)
CCOn1cc(C[C@@]2(O)C(=O)OC3[C@@H](O)CO[C@@]32O)c2ccccc21 (some centres not stated)	36.5 µM (inactive)	> 100 µM (inactive)	> 100 µM (inactive)	> 100 µM (inactive)	> 100 µM (inactive)	> 100 µM (inactive)	> 100 µM (inactive)	> 100 µM (inactive)	> 100 µM (inactive)	> 100	> 100 µM (inactive)	> 100 µM (inactive)	1.94 µM (inactive)	> 100 µM (inactive)	> 100 µM (inactive)	> 100 µM (inactive)	> 100 µM (inactive)	> 100 µM (inactive)	> 100 µM (inactive)	> 100 µM (inactive)
O=C1C(/N=N/c2ccc(-c3nc4ccccc4[nH]3)cc2)NC(=S)N1c1ccccc1 (configuration not stated)	10.7 µM (inactive)	> 100 µM (inactive)	> 100 µM (inactive)	> 100 µM (inactive)	18.8 µM (inactive)	33 µM (inactive)	61.9 µM (inactive)	> 100 µM (inactive)	> 100 µM (inactive)	18.2	17.1 µM (inactive)	> 100 µM (inactive)	> 100 µM (inactive)	> 100 µM (inactive)	53.7 µM (inactive)	67.3 µM (inactive)	> 100 µM (inactive)	48.6 µM (inactive)	13.4 µM (inactive)	> 100 µM (inactive)
Cn1c(=O)c2sc3cc4c(cc3c2c2ccccc21)sc1c(=O)n(C)c2ccccc2c14	40.1 µM (inactive)	> 100 µM (inactive)	> 100 µM (inactive)	19.8 µM (inactive)	> 100 µM (inactive)	19 µM (inactive)	> 100 µM (inactive)	–	23.9 µM (inactive)	> 100	> 10 µM (inactive)	88.1 µM (inactive)	> 100 µM (inactive)	81.7 µM (inactive)	89.3 µM (inactive)	> 100 µM (inactive)	43.4 µM (inactive)	34.2 µM (inactive)	15.9 µM (inactive)	57.3 µM (inactive)
C1=N\c2ccc(cc2)/N=C\c2ccc(cc2)OCc2cccc(n2)COc2ccc/1cc2	> 100 µM (inactive)	–	> 100 µM (inactive)	> 100 µM (inactive)	> 100 µM (inactive)	> 100 µM (inactive)	> 100 µM (inactive)	> 100 µM (inactive)	> 100 µM (inactive)	> 100	> 100 µM (inactive)	> 100 µM (inactive)	> 100 µM (inactive)	> 100 µM (inactive)	> 100 µM (inactive)	> 100 µM (inactive)	> 100 µM (inactive)	> 100 µM (inactive)	> 100 µM (inactive)	> 100 µM (inactive)
O=C(O)c1c2c(cc3c1CC1(Cc4ccccc4C1)C3)CCC2	23.3 µM (inactive)	> 100 µM (inactive)	35.4 µM (inactive)	20.8 µM (inactive)	77.1 µM (inactive)	42.6 µM (inactive)	58.2 µM (inactive)	–	14.9 µM (inactive)	82.4	59.3 µM (inactive)	–	> 100 µM (inactive)	51.3 µM (inactive)	35.6 µM (inactive)	> 100 µM (inactive)	63.8 µM (inactive)	49.1 µM (inactive)	> 100 µM (inactive)	> 100 µM (inactive)
NNc1nc2ccccc2c(=O)n1NC(=O)C(=O)Nc1cccc(C(F)(F)F)c1	> 100 µM (inactive)	> 100 µM (inactive)	> 100 µM (inactive)	> 100 µM (inactive)	> 100 µM (inactive)	> 100 µM (inactive)	> 100 µM (inactive)	> 100 µM (inactive)	> 100 µM (inactive)	> 100	> 100 µM (inactive)	> 100 µM (inactive)	> 100 µM (inactive)	> 100 µM (inactive)	> 100 µM (inactive)	> 100 µM (inactive)	> 100 µM (inactive)	> 100 µM (inactive)	> 100 µM (inactive)	> 100 µM (inactive)
CCOC(=O)C(Cc1cccn1C(=O)OC(C)(C)C)[N+](=O)[O-] (configuration not stated)	17.1 µM (inactive)	22.3 µM (inactive)	44.7 µM (inactive)	30.8 µM (inactive)	33.4 µM (inactive)	20.8 µM (inactive)	28.6 µM (inactive)	25.2 µM (inactive)	28.2 µM (inactive)	24.3	24.7 µM (inactive)	19.2 µM (inactive)	23.5 µM (inactive)	28.1 µM (inactive)	32 µM (inactive)	26.6 µM (inactive)	29.9 µM (inactive)	19.6 µM (inactive)	17.6 µM (inactive)	23.8 µM (inactive)
CC(C)C(/C=C/c1ccccc1)=N\NC(=S)NN	3.93 µM (inactive)	> 100 µM (inactive)	41.6 µM (inactive)	> 96.2 µM (inactive)	47 µM (inactive)	> 67.9 µM (inactive)	50.5 µM (inactive)	> 100 µM (inactive)	36.4 µM (inactive)	31.6	24 µM (inactive)	> 100 µM (inactive)	> 100 µM (inactive)	> 100 µM (inactive)	51.1 µM (inactive)	49.5 µM (inactive)	80.5 µM (inactive)	16.7 µM (inactive)	99.8 µM (inactive)	> 100 µM (inactive)
O=C(Cc1nc2ccc(C(=O)c3ccccc3)cc2nc1O)C(=O)Nc1ccc(Br)cc1	–	> 100 µM (inactive)	> 100 µM (inactive)	> 100 µM (inactive)	> 100 µM (inactive)	> 100 µM (inactive)	44.4 µM (inactive)	–	71 µM (inactive)	54.3	49.2 µM (inactive)	> 100 µM (inactive)	> 100 µM (inactive)	> 100 µM (inactive)	> 100 µM (inactive)	44.4 µM (inactive)	53 µM (inactive)	48.9 µM (inactive)	> 100 µM (inactive)	> 100 µM (inactive)
CCOC(=O)Oc1cc2c(c(OC)c1OC)-c1ccc(SC)c(=O)cc1C(NC(=O)C(F)(F)F)CC2 (configuration not stated)	< 0.001 µM (active)	> 10 µM (inactive)	0.0102 µM (active)	0.1 µM (active)	8.97 µM (inactive)	0.00145 µM (active)	2.01 µM (inactive)	0.00316 µM (active)	0.00604 µM (active)	0.00221	< 0.001 µM (active)	< 0.001 µM (active)	0.00133 µM (active)	< 0.001 µM (active)	0.00555 µM (active)	< 0.001 µM (active)	< 0.001 µM (active)	< 0.001 µM (active)	< 0.001 µM (active)	0.1 µM (active)
COC(=O)C(COC(=O)/C=C/c1ccc(OC(C)=O)c(OC(C)=O)c1)NC(=O)/C=C/c1ccc(OC(C)=O)c(OC(C)=O)c1 (configuration not stated)	16.1 µM (inactive)	–	45.8 µM (inactive)	25.2 µM (inactive)	16.6 µM (inactive)	28.4 µM (inactive)	20.7 µM (inactive)	22.9 µM (inactive)	32.7 µM (inactive)	25.5	> 100 µM (inactive)	17.6 µM (inactive)	> 100 µM (inactive)	11.3 µM (inactive)	40.9 µM (inactive)	28.3 µM (inactive)	30.3 µM (inactive)	18.1 µM (inactive)	37.1 µM (inactive)	38.7 µM (inactive)
Clc1ccc2c(NCCNC3CCCCC3)ccnc2c1	2.81 µM (inactive)	2.7 µM (inactive)	11.4 µM (inactive)	10.5 µM (inactive)	4.2 µM (inactive)	5.5 µM (inactive)	11.6 µM (inactive)	15.9 µM (inactive)	5.56 µM (inactive)	5.4	2.12 µM (inactive)	1.77 µM (inactive)	2.11 µM (inactive)	1.87 µM (inactive)	13.6 µM (inactive)	3.04 µM (inactive)	2.54 µM (inactive)	2.67 µM (inactive)	8.95 µM (inactive)	14.9 µM (inactive)
